Assay results: patent US8691865B2 (AbbVie Inc., priority 2008, dated 2014)
Where two headings read alike, the source gives them in different places.

Biological target: human Cav2.2 (Homo sapiens, UniProt Q00975)
Experiment: Assessment of calcium channel activity using FLIPR (Ca2+ influx in IMR32 cells)
Type: cell-based
Method in brief: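 IC50 values derive from nonlinear sigmoidal fitting of percent inhibition, relative to inhibitor-free activity, of Ca2+ influx read by FLIPR. Cells were IMR32 human neuroblastoma, plated at 1−1.2×10^5 per well and grown 48 h at 37 °C.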

[1] = read-out: IC50 (μM) or percent inhibition (* indicates 3 minute incubation, otherwise 60 minute), IC50, 60 minute pre-incubation with compound, IMR32 cells, 80 mM KCl depolarization

human Cav2.2, sequence (Q00975 whole entry): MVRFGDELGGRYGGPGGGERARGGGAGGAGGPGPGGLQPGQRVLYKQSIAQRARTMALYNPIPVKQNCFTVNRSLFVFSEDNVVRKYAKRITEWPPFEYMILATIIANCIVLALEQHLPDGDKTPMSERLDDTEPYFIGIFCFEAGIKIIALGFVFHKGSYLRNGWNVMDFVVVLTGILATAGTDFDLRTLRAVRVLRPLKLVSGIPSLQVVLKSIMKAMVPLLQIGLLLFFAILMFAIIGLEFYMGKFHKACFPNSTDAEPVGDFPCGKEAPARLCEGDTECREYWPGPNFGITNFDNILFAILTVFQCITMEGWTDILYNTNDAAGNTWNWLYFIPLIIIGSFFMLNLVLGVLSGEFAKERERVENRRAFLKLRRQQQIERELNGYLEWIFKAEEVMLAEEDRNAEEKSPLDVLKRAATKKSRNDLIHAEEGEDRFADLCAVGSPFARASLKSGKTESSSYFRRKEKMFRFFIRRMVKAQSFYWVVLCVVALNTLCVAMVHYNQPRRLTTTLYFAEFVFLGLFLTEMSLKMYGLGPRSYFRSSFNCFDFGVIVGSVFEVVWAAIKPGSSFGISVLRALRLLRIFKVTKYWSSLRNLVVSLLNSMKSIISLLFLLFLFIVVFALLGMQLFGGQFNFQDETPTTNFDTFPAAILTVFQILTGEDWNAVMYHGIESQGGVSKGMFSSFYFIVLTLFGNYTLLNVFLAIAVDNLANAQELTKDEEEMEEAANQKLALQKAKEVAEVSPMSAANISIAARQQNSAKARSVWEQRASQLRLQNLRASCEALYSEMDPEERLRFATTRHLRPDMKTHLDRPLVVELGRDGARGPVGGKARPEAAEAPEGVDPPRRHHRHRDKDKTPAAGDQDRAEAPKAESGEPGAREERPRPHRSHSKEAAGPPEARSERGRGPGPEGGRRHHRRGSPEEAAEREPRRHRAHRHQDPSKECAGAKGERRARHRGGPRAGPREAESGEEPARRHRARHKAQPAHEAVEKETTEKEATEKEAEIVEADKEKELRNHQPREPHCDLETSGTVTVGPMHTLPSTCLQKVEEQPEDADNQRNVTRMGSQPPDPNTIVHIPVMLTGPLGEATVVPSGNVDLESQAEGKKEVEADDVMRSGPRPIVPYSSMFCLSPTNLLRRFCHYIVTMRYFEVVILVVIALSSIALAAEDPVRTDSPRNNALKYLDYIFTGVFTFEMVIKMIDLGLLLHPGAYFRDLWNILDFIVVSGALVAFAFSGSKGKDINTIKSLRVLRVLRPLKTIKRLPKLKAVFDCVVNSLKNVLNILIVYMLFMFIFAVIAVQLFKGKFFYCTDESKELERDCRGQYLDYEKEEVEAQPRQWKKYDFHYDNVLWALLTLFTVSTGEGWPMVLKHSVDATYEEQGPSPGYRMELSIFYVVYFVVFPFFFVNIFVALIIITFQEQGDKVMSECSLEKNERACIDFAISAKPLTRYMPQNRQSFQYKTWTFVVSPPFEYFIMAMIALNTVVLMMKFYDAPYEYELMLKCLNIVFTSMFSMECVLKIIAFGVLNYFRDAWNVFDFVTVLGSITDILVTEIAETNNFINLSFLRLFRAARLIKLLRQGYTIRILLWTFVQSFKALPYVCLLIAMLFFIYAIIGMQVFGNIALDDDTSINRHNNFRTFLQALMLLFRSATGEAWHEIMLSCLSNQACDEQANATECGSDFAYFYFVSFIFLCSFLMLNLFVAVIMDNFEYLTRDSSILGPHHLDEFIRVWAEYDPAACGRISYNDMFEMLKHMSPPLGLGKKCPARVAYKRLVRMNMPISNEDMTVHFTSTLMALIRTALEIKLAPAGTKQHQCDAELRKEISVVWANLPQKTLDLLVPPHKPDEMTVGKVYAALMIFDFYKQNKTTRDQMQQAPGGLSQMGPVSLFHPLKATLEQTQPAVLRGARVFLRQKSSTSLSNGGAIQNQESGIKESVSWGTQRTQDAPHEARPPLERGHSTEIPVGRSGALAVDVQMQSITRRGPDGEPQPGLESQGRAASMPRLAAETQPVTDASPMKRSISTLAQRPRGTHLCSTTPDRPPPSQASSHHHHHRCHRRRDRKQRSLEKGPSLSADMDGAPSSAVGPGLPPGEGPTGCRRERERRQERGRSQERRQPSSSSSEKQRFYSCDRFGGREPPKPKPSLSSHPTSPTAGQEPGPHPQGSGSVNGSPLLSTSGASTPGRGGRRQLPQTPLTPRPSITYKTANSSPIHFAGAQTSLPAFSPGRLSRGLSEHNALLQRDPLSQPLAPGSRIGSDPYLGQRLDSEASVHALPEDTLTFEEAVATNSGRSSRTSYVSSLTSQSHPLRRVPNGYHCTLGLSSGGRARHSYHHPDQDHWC
human Cav2.2, sequence (P54289 25-956 partner limits assumed): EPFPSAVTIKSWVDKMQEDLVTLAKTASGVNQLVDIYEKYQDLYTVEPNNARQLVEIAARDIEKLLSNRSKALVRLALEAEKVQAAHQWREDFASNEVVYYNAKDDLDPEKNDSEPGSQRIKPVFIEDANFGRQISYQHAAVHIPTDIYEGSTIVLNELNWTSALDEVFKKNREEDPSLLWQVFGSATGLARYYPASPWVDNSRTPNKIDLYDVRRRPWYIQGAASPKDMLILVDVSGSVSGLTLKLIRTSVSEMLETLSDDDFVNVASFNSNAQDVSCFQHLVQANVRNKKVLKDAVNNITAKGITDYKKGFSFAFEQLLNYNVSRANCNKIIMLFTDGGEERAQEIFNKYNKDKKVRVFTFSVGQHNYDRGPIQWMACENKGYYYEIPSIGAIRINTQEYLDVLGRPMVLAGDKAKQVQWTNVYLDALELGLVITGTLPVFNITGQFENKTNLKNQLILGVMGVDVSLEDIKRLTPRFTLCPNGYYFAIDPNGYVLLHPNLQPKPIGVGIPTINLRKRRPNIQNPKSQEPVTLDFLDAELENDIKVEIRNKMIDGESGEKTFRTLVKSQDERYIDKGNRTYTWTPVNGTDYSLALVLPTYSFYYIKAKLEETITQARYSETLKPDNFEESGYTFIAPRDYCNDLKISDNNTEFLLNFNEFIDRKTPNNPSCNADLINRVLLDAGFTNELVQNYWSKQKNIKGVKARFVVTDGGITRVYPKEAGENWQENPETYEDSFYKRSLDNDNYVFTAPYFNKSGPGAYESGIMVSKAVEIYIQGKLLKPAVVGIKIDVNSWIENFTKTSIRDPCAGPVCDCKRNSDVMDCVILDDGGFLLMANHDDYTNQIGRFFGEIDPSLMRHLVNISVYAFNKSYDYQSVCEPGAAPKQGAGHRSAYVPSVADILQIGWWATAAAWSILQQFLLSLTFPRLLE
human Cav2.2, sequence (P54289 957-1103 partner limits assumed): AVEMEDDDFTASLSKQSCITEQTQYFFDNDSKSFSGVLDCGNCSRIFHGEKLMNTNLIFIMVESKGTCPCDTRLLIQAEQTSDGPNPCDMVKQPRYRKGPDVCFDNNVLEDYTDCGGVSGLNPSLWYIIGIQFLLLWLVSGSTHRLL
human Cav2.2, sequence (P54284 whole entry partner): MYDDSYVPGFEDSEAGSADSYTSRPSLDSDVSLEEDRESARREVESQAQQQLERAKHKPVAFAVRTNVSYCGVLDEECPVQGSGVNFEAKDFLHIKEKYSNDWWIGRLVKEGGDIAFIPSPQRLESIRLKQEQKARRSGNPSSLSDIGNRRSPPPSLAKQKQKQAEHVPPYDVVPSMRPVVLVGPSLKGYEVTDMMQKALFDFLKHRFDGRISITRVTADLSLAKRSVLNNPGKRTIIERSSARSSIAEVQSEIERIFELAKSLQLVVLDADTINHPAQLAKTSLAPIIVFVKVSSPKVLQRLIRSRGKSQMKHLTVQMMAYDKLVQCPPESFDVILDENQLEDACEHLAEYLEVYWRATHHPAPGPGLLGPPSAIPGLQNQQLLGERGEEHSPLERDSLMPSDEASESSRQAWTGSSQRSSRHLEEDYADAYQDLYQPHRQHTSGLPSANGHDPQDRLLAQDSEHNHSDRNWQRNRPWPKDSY

Row | SMILES | IC50 [µM] | IC50 [1] [µM]
1 | O=C(CCC(F)(F)F)N[C@H]1CC[C@@H]2CN(c3cccc(C(F)(F)F)n3)C[C@@H]21 [Example 582, 4,4,4-trifluoro-N-{(3aR,4S,6aS)-2-[6-(trifluoromethyl)pyridin-2-yl]octahydrocyclopenta[c]pyrrol-4-yl}butanamide] | 0.96 | 
2 | Fc1ccc(-c2c[nH]c(CN[C@H]3CC[C@@H]4CN(c5cccc(C(F)(F)F)n5)C[C@@H]43)n2)cc1 [Example 744, (3aR,4S,6aS)-N-{[4-(4-fluorophenyl)-1H-imidazol-2-yl]methyl}-2-[6-(trifluoromethyl)pyridin-2-yl]octahydrocyclopenta[c]pyrrol-4-amine] | 1.21 | 
3 | CC(C)(C)NC(=O)N[C@H]1CC[C@@H]2CN(c3cccc(C(F)(F)F)n3)C[C@@H]21 [Example 711, 1-tert-butyl-3-{(3aR,4S,6aS)-2-[6-(trifluoromethyl)pyridin-2-yl]octahydrocyclopenta[c]pyrrol-4-yl}urea] | 1.38 | 
4 | FC(F)(F)c1cccc(N2C[C@H]3CC[C@H](NCc4cccc5nsnc45)[C@H]3C2)n1 [Example 728, (3aR,4S,6aS)-N-(2,1,3-benzothiadiazol-4-ylmethyl)-2-[6-(trifluoromethyl)pyridin-2-yl]octahydrocyclopenta[c]pyrrol-4-amine] | 0.48 | 
5 | CCC[C@H](NC)C(=O)N[C@H]1CC[C@@H]2CN(S(=O)(=O)c3ccc(OC)c(OC)c3)C[C@@H]21 [Example 545, N^1-{(3aR,4S,6aS)-2-[(3,4-dimethoxyphenyl)sulfonyl]octahydrocyclopenta[c]pyrrol-4-yl}-N^2-methyl-L-norvalinamide] | > 30 | 
6 | O=S(=O)(N[C@H]1CC[C@@H]2CN(c3cccc(C(F)(F)F)n3)C[C@@H]21)c1ccccc1Cl [Example 701, 2-chloro-N-{(3aR,4S,6aS)-2-[6-(trifluoromethyl)pyridin-2-yl]octahydrocyclopenta[c]pyrrol-4-yl}benzenesulfonamide] | 4.5 | 
7 | CN[C@@H](CC(C)C)C(=O)N[C@@H]1CC[C@H]2CN(Cc3ccccc3)C[C@H]21 [Example 165, N^1-[(3aS,4R,6aR)-2-benzyloctahydrocyclopenta[c]pyrrol-4-yl]-N^2-methyl-L-leucinamide] |  | > 30
8 | CC(C)C(C(=O)N[C@H]1CC[C@@H]2CN(CCCCCC(c3ccc(F)cc3)c3ccc(F)cc3)C[C@@H]21)c1ccccc1 (stereo partly drawn) [Example 107, N-{(3aR,4S,6aS)-2-[6,6-bis(4-fluorophenyl)hexyl]octahydrocyclopenta[c]pyrrol-4-yl}-3-methyl-2-phenylbutanamide] |  | 1.14
9 | O=C(N[C@@H]1CC[C@H]2CN(C(c3ccccc3)c3ccccc3)C[C@H]21)C(C1CCCCC1)C1CCCCC1 [Example 121, N-[(3aS,4R,6aR)-2-benzhydryloctahydrocyclopenta[c]pyrrol-4-yl]-2,2-dicyclohexylacetamide] |  | 14.3
10 | O=S(=O)(c1cccc(C(F)(F)F)c1)N1C[C@H]2CC[C@H](NCc3cc4cc(F)ccc4[nH]3)[C@H]2C1 [Example 650, (3aR,4S,6aS)-N-[(5-fluoro-1H-indol-2-yl)methyl]-2-{[3-(trifluoromethyl)phenyl]sulfonyl}octahydrocyclopenta[c]pyrrol-4-amine] | 0.59 | 
11 | CC(C)(C)[C@@H](C(=O)N[C@@H]1CC[C@H]2CN(Cc3ccccc3)C[C@H]21)c1ccccc1 [Example 32, (2R)-N-[(3aS,4R,6aR)-2-benzyloctahydrocyclopenta[c]pyrrol-4-yl]-3,3-dimethyl-2-phenylbutanamide] |  | 1.42
12 | FC(F)(F)c1cccc(N2C[C@H]3CC[C@H](NCc4c[nH]c(-c5ccccc5)n4)[C@H]3C2)n1 [Example 688, (3aR,4S,6aS)-N-[(2-phenyl-1H-imidazol-4-yl)methyl]-2-[6-(trifluoromethyl)pyridin-2-yl]octahydrocyclopenta[c]pyrrol-4-amine] | 1.03 | 
13 | CCCCc1nc(CN[C@H]2CC[C@@H]3CN(c4cccc(C(F)(F)F)n4)C[C@@H]32)c[nH]1 [Example 674, (3aR,4S,6aS)-N-[(2-butyl-1H-imidazol-4-yl)methyl]-2-[6-(trifluoromethyl)pyridin-2-yl]octahydrocyclopenta[c]pyrrol-4-amine] | 0.53 | 
14 | FC(F)(F)c1cccc(N2C[C@H]3CC[C@H](NCc4cc5cccnc5s4)[C@H]3C2)n1 [Example 727, (3aR,4S,6aS)-N-(thieno[2,3-b]pyridin-2-ylmethyl)-2-[6-(trifluoromethyl)pyridin-2-yl]octahydrocyclopenta[c]pyrrol-4-amine] | 0.58 | 
15 | O=C(N[C@H]1CC[C@@H]2CN(c3cccc(C(F)(F)F)n3)C[C@@H]21)[C@@H]1CC(F)(F)CN1 [Example 595, 4,4-difluoro-N-{(3aR,4S,6aS)-2-[6-(trifluoromethyl)pyridin-2-yl]octahydrocyclopenta[c]pyrrol-4-yl}-L-prolinamide] | 2.18 | 
16 | O=C(N[C@H]1CC[C@H]2CN(Cc3ccccc3)C[C@H]21)C1(c2ccccc2)CCCC1 (relative stereo) [Example 1, N-[(3aS*,4S*,6aR*)-2-benzyloctahydrocyclopenta[c]pyrrol-4-yl]-1-phenylcyclopentanecarboxamide] | 1.93 | 

Row | SMILES | IC50 [µM] | IC50 [1] [µM]
17 | O=C(N[C@H]1CC[C@@H]2CN(c3cccc(C(F)(F)F)n3)C[C@@H]21)c1cccc(F)c1 [Example 564, 3-fluoro-N-{(3aR,4S,6aS)-2-[6-(trifluoromethyl)pyridin-2-yl]octahydrocyclopenta[c]pyrrol-4-yl}benzamide] | 0.34 | 
18 | CC[C@H](C(=O)N[C@@H]1CC[C@H]2CN(Cc3ccccc3)C[C@H]21)c1ccccc1 [Example 16, (2S)-N-[(3aS,4R,6aR)-2-benzyloctahydrocyclopenta[c]pyrrol-4-yl]-2-phenylbutanamide] |  | 9.75
19 | CCC[C@H](NC)C(=O)N[C@@H]1CC[C@H]2CN(Cc3ccccc3)C[C@H]21 [Example 352, N^1-[(3aS,4R,6aR)-2-benzyloctahydrocyclopenta[c]pyrrol-4-yl]-N^2-methyl-L-norvalinamide] | > 30 | 
20 | O=C(N[C@H]1CC[C@@H]2CN(c3cccc(C(F)(F)F)c3F)C[C@@H]21)[C@@H]1C[C@@H](F)CN1 [Example 623, (4R)-4-fluoro-N-{(3aR,4S,6aS)-2-[2-fluoro-3-(trifluoromethyl)phenyl]octahydrocyclopenta[c]pyrrol-4-yl}-L-prolinamide] | 1.32 | 
21 | O=S(=O)(c1ccc(C(F)(F)F)cc1Cl)N1C[C@H]2CC[C@H](Nc3ccc(C(F)(F)F)cn3)[C@H]2C1 [Example 295, (3aR,4S,6aS)-2-{[2-chloro-4-(trifluoromethyl)phenyl]sulfonyl}-N-[5-(trifluoromethyl)pyridin-2-yl]octahydrocyclopenta[c]pyrrol-4-amine] |  | 2.98
22 | CN[C@H](C(=O)N[C@H]1CC[C@@H]2CN(S(=O)(=O)c3cccc(C(F)(F)F)c3)C[C@@H]21)C(C)C [Example 389, N^2-methyl-N^1-((3aR,4S,6aS)-2-{[3-(trifluoromethyl)phenyl]sulfonyl}octahydrocyclopenta[c]pyrrol-4-yl)-L-valinamide] | 1.48 | 
23 | CC(C)C[C@@H](C(=O)N[C@@H]1CC[C@H]2CN(S(C)(=O)=O)C[C@H]21)N1CCCC1 [Example 346, (2S)-4-methyl-N-[(3aS,4R,6aR)-2-(methylsulfonyl)octahydrocyclopenta[c]pyrrol-4-yl]-2-pyrrolidin-1-ylpentanamide] | > 30 | 
24 | CN[C@H](C(=O)N[C@@H]1CC[C@H]2CN(Cc3ccc(F)cc3)C[C@H]21)C(C)C [Example 369, N^1-[(3aS,4R,6aR)-2-(4-fluorobenzyl)octahydrocyclopenta[c]pyrrol-4-yl]-N^2-methyl-L-valinamide] | > 16.4 | 
25 | CCC[C@H](NCC(C)(C)C)C(=O)N[C@@H]1CC[C@H]2CN(Cc3ccccc3)C[C@H]21 [Example 246, N^1-[(3aS,4R,6aR)-2-benzyloctahydrocyclopenta[c]pyrrol-4-yl]-N^2-neopentyl-L-norvalinamide] |  | 8.38
26 | CCCC[C@H](NC)C(=O)N[C@H]1CC[C@@H]2CN(Cc3ccccc3)C[C@@H]21 [Example 362, N^1-[(3aR,4S,6aS)-2-benzyloctahydrocyclopenta[c]pyrrol-4-yl]-N^2-methyl-L-norleucinamide] | > 30 | 
27 | CCC[C@H](NC)C(=O)N[C@H]1CC[C@@H]2CN(S(=O)(=O)c3cccs3)C[C@@H]21 [Example 533, N^2-methyl-N^1-[(3aR,4S,6aS)-2-(thien-2-ylsulfonyl)octahydrocyclopenta[c]pyrrol-4-yl]-L-norvalinamide] |  | 9.68
28 | CC(C)C[C@H](NS(=O)(=O)CC(C)C)C(=O)N[C@@H]1CC[C@H]2CN(Cc3cccc(C(F)(F)F)c3)C[C@H]21 [Example 173, N^2-(isobutylsulfonyl)-N^1-{(3aS,4R,6aR)-2-[3-(trifluoromethyl)benzyl]octahydrocyclopenta[c]pyrrol-4-yl}-L-leucinamide] |  | 1.81
29 | CCC[C@H](NC(=O)OC(C)C)C(=O)N[C@H]1CC[C@@H]2CN(S(=O)(=O)c3ccc(C(F)(F)F)cc3)C[C@@H]21 [Example 279, isopropyl(S)-1-oxo-1-((3aR,4S,6aS)-2-(4-(trifluoromethyl)phenylsulfonyl)octahydrocyclopenta[c]pyrrol-4-ylamino)pentan-2-ylcarbamate] | > 16.4 | 
30 | O=S(=O)(c1cccc(C(F)(F)F)c1)N(C1CC1)[C@H]1CC[C@H]2CN(CCCCCC(c3ccc(F)cc3)c3ccc(F)cc3)C[C@H]21 (relative stereo) [Example 202, N-{(3aS*,4S*,6aR*)-2-[6,6-bis(4-fluorophenyl)hexyl]octahydrocyclopenta[c]pyrrol-4-yl}-N-cyclopropyl-3-(trifluoromethyl)benzenesulfonamide] |  | 0.83
31 | CN(C(=O)OC(C)(C)C)[C@@H](CC(C)(C)C)C(=O)N(CC1CC1)[C@H]1CC[C@@H]2CN(S(=O)(=O)c3ccc(C(F)(F)F)cc3)C[C@@H]21 [Example 298] |  | 8.99
32 | CC(C)(C)NC(=O)N[C@H]1CC[C@@H]2CN(c3ccc(OC(F)(F)F)cc3)C[C@@H]21 [Example 778, 1-tert-butyl-3-{(3aR,4S,6aS)-2-[4-(trifluoromethoxy)phenyl]octahydrocyclopenta[c]pyrrol-4-yl}urea] | 4.27 | 
